# Measurements: PMC6271681, “Discovery of Novel c-Met Inhibitors Bearing a 3-Carboxyl Piperidin-2-one Scaffold” (Molecules, 2014)
# Tests used:
# c-Met = conditions: in Figure 2; cited from earlier work
# c-Met kinase = c-Met kinase (Homo sapiens, UniProt P08581); assay: c-Met kinase assay (ELISA, purified recombinant protein); type: biochemical; conditions: for IC50: ELISA, poly(Glu,Tyr)4:1 substrate, two separate experiments; for inhibition at 10 µM / c-Met inhibition rate @10 μM: compound at 10 μM; for inhibition at 10 µM: read-out: c-Met inhibition rate @10 μM; for inhibition at 1 µM: read-out: c-Met inhibition rate @1 μM
# Method: The effects of indicated compound on the activities of c-Met kinases were determined using enzyme-linked immunosorbent assays (ELISAs) with purified recombinant proteins. Briefly, 20 μg/mL poly (Glu,Tyr)4:1 (Sigma, St. Louis, MO, USA) was pre-coated in 96-well plates as a substrate. A 50-μL aliquot of 10 μmol/L ATP solution diluted in kinase reaction buffer (50 mmol/L HEPES [pH 7.4], 50 mmol/L MgCl2, 0.5 mmol/L MnCl2, 0.2 mmol/L Na3VO4, and 1 mmol/L DTT) was added to each well; 1 μL of various concentrations of indicated compound diluted in 1% DMSO (v/v) (Sigma) were then added to each reaction well. DMSO (1%, v/v) was used as the negative control. The kinase reaction was initiated by the addition of purified c-Met tyrosine kinase proteins diluted in 49 μL of kinase reaction buffer. After incubation for 60 min at 37 °C, the plate was washed three times with phosphate-buffered saline (PBS) containing 0.1% Tween 20 (T-PBS). Anti-phosphotyrosine (PY99) antibody (100 μL; 1:500, diluted in 5 mg/mL BSA T-PBS) was then added. After a 30-min incubation at 37 °C, the plate was washed three times, and 100 μL horseradish peroxidase-conjugated goat anti-mouse IgG (1:2000, diluted in 5 mg/mL BSA T-PBS) was added. The plate was then incubated at 37 °C for 30 min and washed 3 times. A 100-μL aliquot of a solution containing 0.03% H2O2 and 2 mg/ml o-phenylenediamine in 0.1 mol/L citrate buffer (pH 5.5) was added. The reaction was terminated by the addition of 50 μL of 2 mol/L H2SO4 as the color changed, and the plate was analyzed using a multi-well spectrophotometer (SpectraMAX 190, Molecular Devices, Sunnyvale, CA, USA) at 490 nm. […] The IC50 values were calculated from the inhibition curves in two separate experiments.
# MKN45 cells = assay: Cell proliferation assay (SRB, 72 h); type: cell-based; conditions: MKN-45, MKN45 human gastric cancer cell line with constitutively active c-Met
# Method: Cells were seeded in 96-well tissue culture plates. On the next day, the cells were exposed to various concentrations of compounds and further cultured for 72 h. Cell proliferation was then determined using sulforhodamine B (SRB, Sigma, St. Louis, MO, USA). The IC50 values were calculated by concentration-response curve fitting using the four-parameter method.
# [1] = printed in the c-Met IC50 column
# [2] = compound at 1 μM, printed in the c-Met IC50 column
# Chain of c-Met kinase (P08581 25-1390): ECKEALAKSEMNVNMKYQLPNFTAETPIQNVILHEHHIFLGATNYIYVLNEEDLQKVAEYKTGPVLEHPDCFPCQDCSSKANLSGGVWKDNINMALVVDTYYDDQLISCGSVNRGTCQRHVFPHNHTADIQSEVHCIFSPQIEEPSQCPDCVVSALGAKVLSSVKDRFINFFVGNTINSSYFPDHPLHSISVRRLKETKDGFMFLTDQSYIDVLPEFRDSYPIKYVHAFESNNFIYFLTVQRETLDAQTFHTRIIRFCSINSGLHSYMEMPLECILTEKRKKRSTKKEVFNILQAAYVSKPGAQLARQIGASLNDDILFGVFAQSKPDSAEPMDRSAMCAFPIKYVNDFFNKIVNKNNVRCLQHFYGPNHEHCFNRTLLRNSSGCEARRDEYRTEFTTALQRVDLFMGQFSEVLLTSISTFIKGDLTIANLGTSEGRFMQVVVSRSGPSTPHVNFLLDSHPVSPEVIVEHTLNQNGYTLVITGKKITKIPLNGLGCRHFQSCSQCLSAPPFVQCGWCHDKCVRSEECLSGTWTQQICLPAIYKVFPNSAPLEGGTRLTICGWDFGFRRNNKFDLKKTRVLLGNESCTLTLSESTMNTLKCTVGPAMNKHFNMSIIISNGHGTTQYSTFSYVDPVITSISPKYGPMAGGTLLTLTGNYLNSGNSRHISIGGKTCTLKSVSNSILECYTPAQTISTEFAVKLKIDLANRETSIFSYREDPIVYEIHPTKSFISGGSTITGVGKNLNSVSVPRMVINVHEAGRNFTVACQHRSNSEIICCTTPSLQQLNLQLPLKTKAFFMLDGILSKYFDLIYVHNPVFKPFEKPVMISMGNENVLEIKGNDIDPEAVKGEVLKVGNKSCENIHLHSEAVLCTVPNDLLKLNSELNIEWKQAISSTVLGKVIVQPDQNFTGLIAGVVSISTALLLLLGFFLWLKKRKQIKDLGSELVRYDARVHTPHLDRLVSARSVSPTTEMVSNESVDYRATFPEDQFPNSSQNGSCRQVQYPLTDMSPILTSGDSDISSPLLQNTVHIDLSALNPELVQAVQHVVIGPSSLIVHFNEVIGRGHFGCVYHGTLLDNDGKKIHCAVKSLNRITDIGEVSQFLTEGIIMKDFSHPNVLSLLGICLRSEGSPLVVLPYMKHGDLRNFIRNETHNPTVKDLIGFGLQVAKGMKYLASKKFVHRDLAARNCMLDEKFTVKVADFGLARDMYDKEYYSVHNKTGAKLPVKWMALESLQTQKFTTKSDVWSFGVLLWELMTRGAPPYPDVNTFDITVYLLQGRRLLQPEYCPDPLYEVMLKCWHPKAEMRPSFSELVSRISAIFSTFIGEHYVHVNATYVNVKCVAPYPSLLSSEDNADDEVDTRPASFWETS
IC50 (MKN45 cells) [nM],inhibition at 10 µM (c-Met kinase; [1]) [%],Molecule,other results
290 ± 20,,"CCOc1ccn(-c2ccc(F)cc2)c(=O)c1C(=O)Nc1ccc(Oc2ccnc(N)c2Cl)c(F)c1 [BMS-777607, N-(4-(2-amino-3-chloropyridin-4-yloxy)-3-fluorophenyl)-4-ethoxy-1-(4-fluorophenyl)-2-oxo-1,2-dihydropyridine-3-carboxamide, reference compound]",IC50 (c-Met): 3.9 nM; IC50 (c-Met kinase): 3.7 ± 1.3 nM
,59.1,"Nc1nccc(Oc2ccc(NC(=O)C3CCCN(c4ccc(F)cc4)C3=O)cc2F)n1 (centres unmarked) [Compound 19a, N-(4-((2-aminopyrimidin-4-yl)oxy)-3-fluorophenyl)-1-(4-fluorophenyl)-2-oxopiperidine-3-carbox-amide]",inhibition at 1 µM (c-Met kinase; [2]): 27.5%
,52.5,"Nc1nccc(Oc2ccc(NC(=O)C3(Cl)CCCN(c4ccc(F)cc4)C3=O)cc2F)n1 (centres unmarked) [Compound 19b, N-(4-((2-aminopyrimidin-4-yl)oxy)-3-fluorophenyl)-3-chloro-1-(4-fluorophenyl)-2-oxopiperidine-3-carboxamide]",inhibition at 1 µM (c-Met kinase; [2]): 28.3%
,38.4,"COc1cc2nccc(Oc3ccc(NC(=O)C4CCCN(c5ccc(F)cc5)C4=O)cc3F)c2cc1OC (centres unmarked) [Compound 20a, N-(4-((6,7-dimethoxyquinolin-4-yl)oxy)-3-fluorophenyl)-1-(4-fluorophenyl)-2-oxopiperidine-3-carbox-amide]",
650 ± 130,,"COc1cc2nccc(Oc3ccc(NC(=O)C4(C)CCCN(c5ccc(F)cc5)C4=O)cc3F)c2cc1OC (centres unmarked) [Compound 20c, N-(4-((6,7-dimethoxyquinolin-4-yl)oxy)-3-fluorophenyl)-1-(4-fluorophenyl)-3-methyl-2-oxopiperidine-3-carboxamide]",IC50 (c-Met kinase): 11.2 ± 4.1 nM
2950 ± 120,,"CCC1(C(=O)Nc2ccc(Oc3ccnc4cc(OC)c(OC)cc34)c(F)c2)CCCN(c2ccc(F)cc2)C1=O (centres unmarked) [Compound 20d, N-(4-((6,7-dimethoxyquinolin-4-yl)oxy)-3-fluorophenyl)-3-ethyl-1-(4-fluorophenyl)-2-oxopiperidine-3-carboxamide]",IC50 (c-Met kinase): 19.1 ± 4.5 nM
16000 ± 800,,"CCCCC1(C(=O)Nc2ccc(Oc3ccnc4cc(OC)c(OC)cc34)c(F)c2)CCCN(c2ccc(F)cc2)C1=O (centres unmarked) [Compound 20e, N-(4-((6,7-dimethoxyquinolin-4-yl)oxy)-3-fluorophenyl)-3-butyl-1-(4-fluorophenyl)-2-oxopiperidine-3-carboxamide]",IC50 (c-Met kinase): 64 ± 10.8 nM

# The remaining lines, values behind:
Molecule,IC50 (MKN45 cells) [nM],inhibition at 10 µM (c-Met kinase; [1]) [%],other results
"NC(=O)c1nccc(Oc2ccc(NC(=O)C3CCCN(c4ccc(F)cc4)C3=O)cc2F)c1Cl (centres unmarked) [Compound 15a, 3-Chloro-4-(2-fluoro-4-(1-(4-fluorophenyl)-2-oxopiperidine-3-carboxamido)phenoxy)picolinamide]",,63.9,
"NC(=O)c1nccc(Oc2ccc(NC(=O)C3(Cl)CCCN(c4ccc(F)cc4)C3=O)cc2F)c1Cl (centres unmarked) [Compound 15b, 3-Chloro-4-(4-(3-chloro-1-(4-fluorophenyl)-2-oxopiperidine-3-carboxamido)-2-fluorophenoxy)-picolinamide]",,90.2,inhibition at 1 µM (c-Met kinase; [2]): 38.7%
"COc1ccc(CNc2nccc(Oc3ccc(NC(=O)C4CCCN(c5ccc(F)cc5)C4=O)cc3F)n2)cc1 (centres unmarked) [Compound 18a, N-(3-fluoro-4-((2-((4-methoxybenzyl)amino)pyrimidin-4-yl)oxy)phenyl)-1-(4-fluorophenyl)-2-oxo-piperidine-3-carboxamide]",,28.4,
"COc1ccc(CNc2nccc(Oc3ccc(NC(=O)C4(Cl)CCCN(c5ccc(F)cc5)C4=O)cc3F)n2)cc1 (centres unmarked) [Compound 18b, 3-Chloro-N-(3-fluoro-4-((2-((4-methoxybenzyl)amino)pyrimidin-4-yl)oxy)phenyl)-1-(4-fluorophenyl)-2-oxopiperidine-3-carboxamide]",,10,
"COc1cc2nccc(Oc3ccc(NC(=O)C4(Cl)CCCN(c5ccc(F)cc5)C4=O)cc3F)c2cc1OC (centres unmarked) [Compound 20b, 3-Chloro-N-(4-((6,7-dimethoxyquinolin-4-yl)oxy)-3-fluorophenyl)-1-(4-fluorophenyl)-2-oxopiperidine-3-carboxamide]",570 ± 40,,
"N-(4-((7H-pyrrolo[2,3-d]pyrimidin-4-yl)oxy)-3-fluorophenyl)-1-(4-fluorophenyl)-2-oxopiperidine-3-carboxamide [Compound 17a]",,,c-Met inhibition rate @1 μM (c-Met kinase; [2]): 41.9%@1 μM; c-Met inhibition rate @10 μM (c-Met kinase; [1]): 70.7%@10 μM
"N-(4-((7H-pyrrolo[2,3-d]pyrimidin-4-yl)oxy)-3-fluorophenyl)-3-chloro-1-(4-fluorophenyl)-2-oxo-piperidine-3-carboxamide [Compound 17b]",,,c-Met inhibition rate @10 μM (c-Met kinase; [1]): 15.4%@10 μM
